pIC50: −log10 of the molar value.
How the values were obtained:
[1] = biological target: T1, Sentrin-specific protease 1 (Homo sapiens, UniProt Q9P0U3); test: Inhibition of human SENP1 using AMC-tagged SUMO1 as substrate incubated for 10 mins by fluorescence based analysis
T1 sequence (Q9P0U3 whole entry): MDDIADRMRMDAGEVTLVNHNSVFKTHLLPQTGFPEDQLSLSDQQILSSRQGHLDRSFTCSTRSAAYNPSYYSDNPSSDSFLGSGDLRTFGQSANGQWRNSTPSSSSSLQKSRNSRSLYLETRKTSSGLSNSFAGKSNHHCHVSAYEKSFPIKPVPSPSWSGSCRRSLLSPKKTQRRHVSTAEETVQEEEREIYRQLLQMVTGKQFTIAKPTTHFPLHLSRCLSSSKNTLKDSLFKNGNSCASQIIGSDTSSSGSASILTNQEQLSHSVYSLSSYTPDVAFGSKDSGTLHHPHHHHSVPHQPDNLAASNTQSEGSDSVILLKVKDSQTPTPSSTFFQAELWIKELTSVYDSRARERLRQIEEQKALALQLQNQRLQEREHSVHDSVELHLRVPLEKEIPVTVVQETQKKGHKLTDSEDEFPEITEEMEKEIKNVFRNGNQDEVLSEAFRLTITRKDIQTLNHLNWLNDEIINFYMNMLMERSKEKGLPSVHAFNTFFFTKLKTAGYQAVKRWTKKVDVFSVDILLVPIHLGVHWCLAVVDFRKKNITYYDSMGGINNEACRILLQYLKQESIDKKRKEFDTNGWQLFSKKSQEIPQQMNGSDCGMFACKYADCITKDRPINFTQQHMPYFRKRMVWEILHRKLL

[2] = biological target: T2, Sentrin-specific protease 6 (Homo sapiens, UniProt Q9GZR1); test: Inhibition of human SENP6 using AMC-tagged SUMO1 as substrate incubated for 10 mins by fluorescence based analysis
T2 sequence (Q9GZR1 whole entry): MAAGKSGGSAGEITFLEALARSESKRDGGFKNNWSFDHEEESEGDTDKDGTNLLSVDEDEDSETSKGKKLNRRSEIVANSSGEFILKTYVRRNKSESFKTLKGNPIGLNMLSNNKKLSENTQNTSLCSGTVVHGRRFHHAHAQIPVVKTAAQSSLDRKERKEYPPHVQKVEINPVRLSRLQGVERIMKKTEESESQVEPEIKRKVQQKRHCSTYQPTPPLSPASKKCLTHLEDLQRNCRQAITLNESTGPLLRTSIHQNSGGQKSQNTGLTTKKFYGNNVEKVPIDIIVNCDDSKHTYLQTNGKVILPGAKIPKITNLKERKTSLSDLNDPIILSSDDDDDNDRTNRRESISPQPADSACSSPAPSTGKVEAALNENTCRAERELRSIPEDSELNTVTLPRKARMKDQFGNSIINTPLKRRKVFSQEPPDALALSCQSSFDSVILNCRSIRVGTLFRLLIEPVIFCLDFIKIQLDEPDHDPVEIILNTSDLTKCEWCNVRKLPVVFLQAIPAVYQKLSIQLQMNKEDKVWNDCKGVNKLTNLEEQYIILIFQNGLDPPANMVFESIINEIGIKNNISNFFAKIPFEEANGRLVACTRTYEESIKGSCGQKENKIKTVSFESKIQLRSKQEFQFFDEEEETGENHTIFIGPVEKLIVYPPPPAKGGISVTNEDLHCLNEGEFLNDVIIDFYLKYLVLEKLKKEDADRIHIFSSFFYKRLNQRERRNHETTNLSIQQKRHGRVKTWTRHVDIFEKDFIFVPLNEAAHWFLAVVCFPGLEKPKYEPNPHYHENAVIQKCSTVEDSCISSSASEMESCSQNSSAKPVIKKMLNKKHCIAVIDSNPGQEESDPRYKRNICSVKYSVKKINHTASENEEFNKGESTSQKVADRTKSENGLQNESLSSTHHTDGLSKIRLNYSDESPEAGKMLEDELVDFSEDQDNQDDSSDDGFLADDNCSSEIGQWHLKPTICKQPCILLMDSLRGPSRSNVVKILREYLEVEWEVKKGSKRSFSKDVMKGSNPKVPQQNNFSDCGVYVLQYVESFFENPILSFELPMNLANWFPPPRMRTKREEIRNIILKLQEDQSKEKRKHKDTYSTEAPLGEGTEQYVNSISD

[3] = biological target: T3, Sentrin-specific protease 2 (Homo sapiens, UniProt Q9HC62); test: Inhibition of human SENP2 using AMC-tagged SUMO1 as substrate incubated for 10 mins by fluorescence based analysis
T3 sequence (Q9HC62 whole entry): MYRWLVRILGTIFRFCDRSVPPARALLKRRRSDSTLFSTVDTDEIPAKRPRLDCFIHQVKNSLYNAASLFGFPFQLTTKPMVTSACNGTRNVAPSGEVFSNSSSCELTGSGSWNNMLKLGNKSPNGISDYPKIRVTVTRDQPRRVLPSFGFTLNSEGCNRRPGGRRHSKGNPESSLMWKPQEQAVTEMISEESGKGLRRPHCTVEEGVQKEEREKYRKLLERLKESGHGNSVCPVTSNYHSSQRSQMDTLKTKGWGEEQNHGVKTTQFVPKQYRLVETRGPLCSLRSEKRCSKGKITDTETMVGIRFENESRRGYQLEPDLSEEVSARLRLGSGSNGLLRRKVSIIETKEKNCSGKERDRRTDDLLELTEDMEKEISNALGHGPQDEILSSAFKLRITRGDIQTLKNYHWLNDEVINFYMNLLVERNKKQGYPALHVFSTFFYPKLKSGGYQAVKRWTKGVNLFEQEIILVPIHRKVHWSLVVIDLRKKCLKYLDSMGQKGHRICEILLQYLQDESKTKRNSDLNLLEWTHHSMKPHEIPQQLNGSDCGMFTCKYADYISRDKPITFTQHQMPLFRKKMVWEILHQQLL

COC1=C(N)C(=O)c2nc(-c3nc(C(=O)O)c(C)c(-c4ccc(OC)c(OC)c4O)c3N)ccc2C1=O [CHEBI:9287]
pIC50 [1]: 6.28 | pIC50 [2]: 5.28 | pIC50 [3]: 5.16

Source: BindingDB's records for PubMed 35247754 (China Pharmaceutical University, 2022)
